Assays:
Test in all cases: kinase profiling, radioactive filter binding assay
Format in all cases: biochemical
[1] = target: PIM3 (Homo sapiens, UniProt Q86V86); conditions: 0.1 µM compound, assay duplicates; read-out: residual activity of PIM3, mean percentage activity
Protocol: (§1) The used method was a radioactive filter binding assay using ^33P ATP, for details see references. The substances were dissolved in DMSO at tested concentration of 0.1 µM. The mean percentage residual kinase activity and standard deviations of assay duplicates were determined. Analyses were performed by the International Center for Kinase Profiling at the University of Dundee, UK.

[2] = target: BRSK2 (Homo sapiens, UniProt Q8IWQ3); conditions: 0.1 µM compound, assay duplicates; read-out: residual activity of BRSK2, mean percentage activity
Protocol: as §1

[3] = target: p38s MAPK (Homo sapiens, UniProt O15264); conditions: 0.1 µM compound, assay duplicates; read-out: residual activity of p38s MAPK, mean percentage activity
Protocol: as §1

[4] = target: MKK1 (Homo sapiens, UniProt Q02750); conditions: 0.1 µM compound, assay duplicates; read-out: residual activity of MKK1, mean percentage activity
Protocol: as §1

[5] = target: Lck (Homo sapiens, UniProt P06239); conditions: 0.1 µM compound, assay duplicates; read-out: residual activity of Lck, mean percentage activity
Protocol: as §1

[6] = target: JNK1 (Homo sapiens, UniProt P45983); conditions: 0.1 µM compound, assay duplicates; read-out: residual activity of JNK1, mean percentage activity
Protocol: as §1

[7] = target: FGF-R1 (Homo sapiens, UniProt P11362); conditions: 0.1 µM compound, assay duplicates; read-out: residual activity of FGF-R1, mean percentage activity
Protocol: as §1

[8] = target: TBK1 (DU12569) (Homo sapiens, UniProt Q9UHD2); conditions: 0.1 µM compound, assay duplicates; read-out: residual activity of TBK1 (DU12569), mean percentage activity
Protocol: as §1

[9] = target: PAK4 (Homo sapiens, UniProt O96013); conditions: 0.1 µM compound, assay duplicates; read-out: residual activity of PAK4, mean percentage activity
Protocol: as §1

[10] = target: MST2 (Homo sapiens, UniProt Q13188); conditions: 0.1 µM compound, assay duplicates; read-out: residual activity of MST2, mean percentage activity
Protocol: as §1

[11] = target: IKKe (Homo sapiens, UniProt Q14164); conditions: 0.1 µM compound, assay duplicates; read-out: residual activity of IKKe, mean percentage activity
Protocol: as §1

[12] = target: HIPK2 (Homo sapiens, UniProt Q9H2X6); conditions: 0.1 µM compound, assay duplicates; read-out: residual activity of HIPK2, mean percentage activity
Protocol: as §1

[13] = target: TBK1 (Homo sapiens, UniProt Q9UHD2); conditions: 0.1 µM compound, assay duplicates; read-out: residual activity of TBK1, mean percentage activity
Protocol: as §1

[14] = target: GSK3b (Homo sapiens, UniProt P49841); conditions: 0.1 µM compound, assay duplicates; read-out: residual activity of GSK3b, mean percentage activity
Protocol: as §1

[15] = target: PIM2 (Homo sapiens, UniProt Q9P1W9); conditions: 0.1 µM compound, assay duplicates; read-out: residual activity of PIM2, mean percentage activity
Protocol: as §1

[16] = test system: AMPK; conditions: 0.1 µM compound, assay duplicates
Protocol: as §1

[17] = target: p38a MAPK (Homo sapiens, UniProt Q16539); conditions: 0.1 µM compound, assay duplicates; read-out: residual activity of p38a MAPK, mean percentage activity
Protocol: as §1

[18] = target: CHK2 (Homo sapiens, UniProt O96017); conditions: 0.1 µM compound, assay duplicates; read-out: residual activity of CHK2, mean percentage activity
Protocol: as §1

[19] = target: PKBa (Homo sapiens, UniProt P31749); conditions: 0.1 µM compound, assay duplicates; read-out: residual activity of PKBa, mean percentage activity
Protocol: as §1

[20] = target: p38g MAPK (Homo sapiens, UniProt P53778); conditions: 0.1 µM compound, assay duplicates; read-out: residual activity of p38g MAPK, mean percentage activity
Protocol: as §1

[21] = target: DYRK1A (Homo sapiens, UniProt Q13627); conditions: 0.1 µM compound, assay duplicates; read-out: residual activity of DYRK1A, mean percentage activity
Protocol: as §1

[22] = target: ERK8 (Homo sapiens, UniProt Q8TD08); conditions: 0.1 µM compound, assay duplicates; read-out: residual activity of ERK8, mean percentage activity
Protocol: as §1

[23] = target: NEK2a (Homo sapiens, UniProt P51955); conditions: 0.1 µM compound, assay duplicates; read-out: residual activity of NEK2a, mean percentage activity
Protocol: as §1

[24] = target: MARK3 (Homo sapiens, UniProt P27448); conditions: 0.1 µM compound, assay duplicates; read-out: residual activity of MARK3, mean percentage activity
Protocol: as §1

[25] = target: JNK2 (Homo sapiens, UniProt P45984); conditions: 0.1 µM compound, assay duplicates; read-out: residual activity of JNK2, mean percentage activity
Protocol: as §1

[26] = target: Aurora B (Homo sapiens, UniProt Q96GD4); conditions: 0.1 µM compound, assay duplicates; read-out: residual activity of Aurora B, mean percentage activity
Protocol: as §1

[27] = target: PRAK (Homo sapiens, UniProt Q8IW41); conditions: 0.1 µM compound, assay duplicates; read-out: residual activity of PRAK, mean percentage activity
Protocol: as §1

[28] = target: IRR (Homo sapiens, UniProt P14616); conditions: 0.1 µM compound, assay duplicates; read-out: residual activity of IRR, mean percentage activity
Protocol: as §1

Chain of ERK8 (Q8TD08 whole entry): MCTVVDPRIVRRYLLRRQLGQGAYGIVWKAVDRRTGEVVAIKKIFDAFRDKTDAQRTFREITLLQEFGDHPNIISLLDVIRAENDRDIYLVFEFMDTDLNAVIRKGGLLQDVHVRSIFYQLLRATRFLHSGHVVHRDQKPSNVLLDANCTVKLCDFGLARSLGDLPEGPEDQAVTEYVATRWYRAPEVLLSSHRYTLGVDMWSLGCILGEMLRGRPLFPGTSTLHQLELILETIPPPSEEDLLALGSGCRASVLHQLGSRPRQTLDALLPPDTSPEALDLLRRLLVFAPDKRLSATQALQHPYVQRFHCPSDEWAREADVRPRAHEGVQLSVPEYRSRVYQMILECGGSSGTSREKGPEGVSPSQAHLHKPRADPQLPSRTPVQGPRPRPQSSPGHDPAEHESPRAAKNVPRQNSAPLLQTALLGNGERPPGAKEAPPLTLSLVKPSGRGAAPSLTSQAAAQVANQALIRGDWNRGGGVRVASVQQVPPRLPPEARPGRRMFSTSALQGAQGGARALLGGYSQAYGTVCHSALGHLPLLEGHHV
Chain of IKKe (Q14164 whole entry): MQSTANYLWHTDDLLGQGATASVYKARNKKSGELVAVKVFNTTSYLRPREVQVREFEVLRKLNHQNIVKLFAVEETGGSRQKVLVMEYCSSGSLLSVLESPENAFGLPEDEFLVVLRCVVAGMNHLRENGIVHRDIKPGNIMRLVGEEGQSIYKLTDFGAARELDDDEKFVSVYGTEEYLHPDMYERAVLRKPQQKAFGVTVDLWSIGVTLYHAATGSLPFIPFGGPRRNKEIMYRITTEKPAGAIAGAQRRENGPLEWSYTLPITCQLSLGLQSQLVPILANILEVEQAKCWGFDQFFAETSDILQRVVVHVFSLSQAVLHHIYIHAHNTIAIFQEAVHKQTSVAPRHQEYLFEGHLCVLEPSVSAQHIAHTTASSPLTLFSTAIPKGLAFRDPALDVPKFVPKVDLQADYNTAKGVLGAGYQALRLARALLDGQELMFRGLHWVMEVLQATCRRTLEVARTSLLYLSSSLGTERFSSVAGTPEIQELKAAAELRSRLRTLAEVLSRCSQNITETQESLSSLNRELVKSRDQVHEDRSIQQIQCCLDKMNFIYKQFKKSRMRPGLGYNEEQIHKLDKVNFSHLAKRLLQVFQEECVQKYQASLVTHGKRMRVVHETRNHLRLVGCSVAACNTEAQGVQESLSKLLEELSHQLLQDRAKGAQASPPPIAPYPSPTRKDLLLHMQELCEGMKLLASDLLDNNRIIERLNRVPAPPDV
Chain of Aurora B (Q96GD4 whole entry): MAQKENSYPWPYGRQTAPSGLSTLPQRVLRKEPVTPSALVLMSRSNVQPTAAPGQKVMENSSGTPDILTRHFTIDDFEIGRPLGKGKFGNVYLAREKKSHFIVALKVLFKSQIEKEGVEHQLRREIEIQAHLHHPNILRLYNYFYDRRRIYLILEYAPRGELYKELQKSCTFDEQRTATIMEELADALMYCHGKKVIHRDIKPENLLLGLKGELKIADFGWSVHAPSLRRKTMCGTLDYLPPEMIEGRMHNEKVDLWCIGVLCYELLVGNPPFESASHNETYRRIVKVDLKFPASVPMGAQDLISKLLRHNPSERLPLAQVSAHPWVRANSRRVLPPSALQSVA
Chain of PRAK (Q8IW41 whole entry): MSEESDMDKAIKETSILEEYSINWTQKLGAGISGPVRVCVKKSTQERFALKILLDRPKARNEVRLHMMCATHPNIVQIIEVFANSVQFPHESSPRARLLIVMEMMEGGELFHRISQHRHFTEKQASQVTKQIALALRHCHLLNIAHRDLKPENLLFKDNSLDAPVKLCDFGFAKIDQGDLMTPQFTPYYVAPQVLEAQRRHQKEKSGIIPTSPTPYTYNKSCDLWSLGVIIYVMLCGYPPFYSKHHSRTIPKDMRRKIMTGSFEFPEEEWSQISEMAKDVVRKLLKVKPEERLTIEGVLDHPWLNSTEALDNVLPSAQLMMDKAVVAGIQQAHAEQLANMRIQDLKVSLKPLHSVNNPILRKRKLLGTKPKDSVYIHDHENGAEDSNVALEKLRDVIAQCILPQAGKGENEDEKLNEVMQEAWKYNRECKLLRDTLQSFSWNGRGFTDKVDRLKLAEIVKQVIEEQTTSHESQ
Chain of MST2 (Q13188 whole entry): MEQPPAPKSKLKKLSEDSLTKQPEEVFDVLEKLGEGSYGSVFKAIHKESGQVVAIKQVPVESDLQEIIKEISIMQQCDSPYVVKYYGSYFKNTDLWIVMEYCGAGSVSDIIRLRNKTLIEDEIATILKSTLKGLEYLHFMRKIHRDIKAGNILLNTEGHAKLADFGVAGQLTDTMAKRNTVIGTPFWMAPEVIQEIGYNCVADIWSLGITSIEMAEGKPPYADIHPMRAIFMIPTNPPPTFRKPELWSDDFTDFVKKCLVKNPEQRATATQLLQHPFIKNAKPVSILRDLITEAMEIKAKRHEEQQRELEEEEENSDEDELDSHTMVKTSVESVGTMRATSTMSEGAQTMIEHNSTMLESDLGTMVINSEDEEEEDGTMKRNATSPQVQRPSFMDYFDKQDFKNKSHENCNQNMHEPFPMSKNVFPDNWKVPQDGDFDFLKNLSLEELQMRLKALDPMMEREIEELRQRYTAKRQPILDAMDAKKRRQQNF
Chain of FGF-R1 (P11362 22-822): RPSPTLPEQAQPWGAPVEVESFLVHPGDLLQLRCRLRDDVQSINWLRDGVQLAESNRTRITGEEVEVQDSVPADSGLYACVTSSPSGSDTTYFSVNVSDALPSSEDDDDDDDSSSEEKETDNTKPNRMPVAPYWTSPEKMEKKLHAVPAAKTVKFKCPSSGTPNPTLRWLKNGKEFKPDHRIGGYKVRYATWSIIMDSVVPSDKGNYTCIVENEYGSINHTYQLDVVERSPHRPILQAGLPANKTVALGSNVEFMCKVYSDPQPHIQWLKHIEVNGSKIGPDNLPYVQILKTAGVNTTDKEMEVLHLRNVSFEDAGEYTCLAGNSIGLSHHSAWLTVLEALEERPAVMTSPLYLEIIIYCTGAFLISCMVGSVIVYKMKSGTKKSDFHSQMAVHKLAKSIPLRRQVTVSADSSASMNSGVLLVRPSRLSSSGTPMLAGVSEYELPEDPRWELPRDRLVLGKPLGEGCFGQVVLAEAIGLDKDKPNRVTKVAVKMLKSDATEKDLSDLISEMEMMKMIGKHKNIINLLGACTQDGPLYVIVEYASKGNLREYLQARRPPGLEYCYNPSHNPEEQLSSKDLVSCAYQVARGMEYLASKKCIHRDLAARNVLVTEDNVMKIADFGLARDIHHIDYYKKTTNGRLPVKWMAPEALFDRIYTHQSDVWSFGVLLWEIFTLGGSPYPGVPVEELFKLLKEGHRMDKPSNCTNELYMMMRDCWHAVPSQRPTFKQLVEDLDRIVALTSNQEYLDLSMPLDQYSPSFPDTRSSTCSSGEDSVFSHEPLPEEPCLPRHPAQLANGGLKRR
Chain of PAK4 (O96013 whole entry): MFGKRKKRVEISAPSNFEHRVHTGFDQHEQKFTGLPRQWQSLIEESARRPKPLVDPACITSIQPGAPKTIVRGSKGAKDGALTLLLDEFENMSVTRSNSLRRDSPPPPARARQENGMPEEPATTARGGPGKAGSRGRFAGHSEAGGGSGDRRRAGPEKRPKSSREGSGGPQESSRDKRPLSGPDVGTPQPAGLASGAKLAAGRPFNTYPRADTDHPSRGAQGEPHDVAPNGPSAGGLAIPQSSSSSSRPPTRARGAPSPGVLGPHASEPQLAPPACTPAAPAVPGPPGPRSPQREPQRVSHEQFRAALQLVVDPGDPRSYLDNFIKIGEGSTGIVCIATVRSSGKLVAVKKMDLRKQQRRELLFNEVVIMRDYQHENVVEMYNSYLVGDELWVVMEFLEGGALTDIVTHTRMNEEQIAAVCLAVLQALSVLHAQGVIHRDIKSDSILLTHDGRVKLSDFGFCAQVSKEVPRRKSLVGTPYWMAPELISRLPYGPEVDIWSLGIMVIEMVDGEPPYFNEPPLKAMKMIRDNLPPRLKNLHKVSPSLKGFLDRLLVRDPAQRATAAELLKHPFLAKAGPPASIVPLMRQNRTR
Chain of MARK3 (P27448 whole entry): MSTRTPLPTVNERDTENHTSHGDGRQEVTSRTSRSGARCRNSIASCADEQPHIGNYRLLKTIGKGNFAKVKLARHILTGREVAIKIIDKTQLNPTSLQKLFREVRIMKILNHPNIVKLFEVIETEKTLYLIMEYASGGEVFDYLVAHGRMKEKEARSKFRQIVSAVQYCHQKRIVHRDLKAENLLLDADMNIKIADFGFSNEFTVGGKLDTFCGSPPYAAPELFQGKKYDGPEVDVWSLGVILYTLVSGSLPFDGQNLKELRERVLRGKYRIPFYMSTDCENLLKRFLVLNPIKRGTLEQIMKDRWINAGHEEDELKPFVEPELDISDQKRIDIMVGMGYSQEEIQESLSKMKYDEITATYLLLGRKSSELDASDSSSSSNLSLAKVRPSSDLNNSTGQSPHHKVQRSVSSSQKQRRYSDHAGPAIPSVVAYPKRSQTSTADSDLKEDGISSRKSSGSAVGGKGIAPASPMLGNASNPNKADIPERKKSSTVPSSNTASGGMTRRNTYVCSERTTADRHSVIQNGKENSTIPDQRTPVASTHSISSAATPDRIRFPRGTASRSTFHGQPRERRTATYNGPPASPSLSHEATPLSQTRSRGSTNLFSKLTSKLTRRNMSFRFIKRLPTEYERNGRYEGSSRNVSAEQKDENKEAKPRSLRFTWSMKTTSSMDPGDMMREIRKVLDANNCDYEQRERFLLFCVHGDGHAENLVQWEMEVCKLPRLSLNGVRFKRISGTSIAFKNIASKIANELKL
Chain of PIM2 (Q9P1W9 whole entry): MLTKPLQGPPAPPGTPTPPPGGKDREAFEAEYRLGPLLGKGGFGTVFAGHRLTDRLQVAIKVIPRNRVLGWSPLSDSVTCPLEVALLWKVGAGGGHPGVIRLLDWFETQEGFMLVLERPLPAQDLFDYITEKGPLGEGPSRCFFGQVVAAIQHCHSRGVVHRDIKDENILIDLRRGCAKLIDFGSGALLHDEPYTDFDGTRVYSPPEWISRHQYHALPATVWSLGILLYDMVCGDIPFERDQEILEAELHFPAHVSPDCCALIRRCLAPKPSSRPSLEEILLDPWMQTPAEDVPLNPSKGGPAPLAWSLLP

COc1cc(C2=C(c3c[nH]c4ccccc34)C(=O)NC2=O)cc(OC)c1OC [Compound 1, 3-(1H-Indol-3-yl)-4-(3,4,5-trimethoxyphenyl)-1H-pyrrole-2,5-dione]
remaining activity at 0.1 µM [1]: 5% | remaining activity at 0.1 µM [2]: 94% | remaining activity at 0.1 µM [3]: 108% | remaining activity at 0.1 µM [4]: 54% | remaining activity at 0.1 µM [5]: 91% | remaining activity at 0.1 µM [6]: 96% | remaining activity at 0.1 µM [7]: 69% | remaining activity at 0.1 µM [8]: 88% | remaining activity at 0.1 µM [9]: 75% | remaining activity at 0.1 µM [10]: 53% | remaining activity at 0.1 µM [11]: 80% | remaining activity at 0.1 µM [12]: 23% | remaining activity at 0.1 µM [13]: 87% | remaining activity at 0.1 µM [14]: 21% | remaining activity at 0.1 µM [15]: 115% | residual activity of AMPK, mean percentage activity [16]: 78% | remaining activity at 0.1 µM [17]: 89% | remaining activity at 0.1 µM [18]: 64% | remaining activity at 0.1 µM [19]: 66% | remaining activity at 0.1 µM [20]: 91% | remaining activity at 0.1 µM [21]: 73% | remaining activity at 0.1 µM [22]: 46% | remaining activity at 0.1 µM [23]: 87% | remaining activity at 0.1 µM [24]: 90% | remaining activity at 0.1 µM [25]: 78% | remaining activity at 0.1 µM [26]: 84% | remaining activity at 0.1 µM [27]: 91% | remaining activity at 0.1 µM [28]: 58%

COc1cc2c3c(c4c5ccccc5[nH]c4c2c(OC)c1OC)C(=O)NC3=O [Compound 3, 5,6,7-Trimethoxybenzo[a]pyrrolo[3,4-c]carbazole-1,3(2H,8H)-dione]
remaining activity at 0.1 µM [1]: 4% | remaining activity at 0.1 µM [2]: 66% | remaining activity at 0.1 µM [3]: 90% | remaining activity at 0.1 µM [4]: 67% | remaining activity at 0.1 µM [5]: 91% | remaining activity at 0.1 µM [6]: 96% | remaining activity at 0.1 µM [7]: 92% | remaining activity at 0.1 µM [8]: 73% | remaining activity at 0.1 µM [9]: 55% | remaining activity at 0.1 µM [10]: 24% | remaining activity at 0.1 µM [11]: 63% | remaining activity at 0.1 µM [12]: 7% | remaining activity at 0.1 µM [13]: 85% | remaining activity at 0.1 µM [14]: 5% | remaining activity at 0.1 µM [15]: 115% | residual activity of AMPK, mean percentage activity [16]: 75% | remaining activity at 0.1 µM [17]: 78% | remaining activity at 0.1 µM [18]: 63% | remaining activity at 0.1 µM [19]: 81% | remaining activity at 0.1 µM [20]: 86% | remaining activity at 0.1 µM [21]: 26% | remaining activity at 0.1 µM [22]: 11% | remaining activity at 0.1 µM [23]: 91% | remaining activity at 0.1 µM [24]: 73% | remaining activity at 0.1 µM [25]: 93% | remaining activity at 0.1 µM [26]: 47% | remaining activity at 0.1 µM [27]: 85% | remaining activity at 0.1 µM [28]: 41%
